Reference: patent publication US8623911B2, “Boron-containing small molecules as anti-protozoal agent” (Anacor Pharmaceuticals, Inc., priority 2010, dated 2014)
Like-named read-outs stand apart in the source and are kept apart here.

Assay: Pharmacokinetic studies in mice (plasma and brain, IV and oral gavage)
Format: in vivo, male CD-1 mice
Conditions: for AUC(0-t) / clearance / AUC(0-inf) / Vd / CL/F / half-life: male, CD-1, mouse; for AUC(0-t): read-out: Exposure/trapezoid AUC0-last; for clearance: read-out: Clearance Cl (converted); for AUC(0-inf): read-out: Exposure/trapezoid AUC0-inf; for Vd: read-out: Vdss; for CL/F: read-out: Oral Clearance Cl/F (converted); for half-life: read-out: t½ (converted); for Cmax: mouse, male CD-1 mice
Experimental: Male CD-1 mice weighing approximately 20 to 30 g received the test article M1 by either intravenous (IV) or oral gavage (OG) routes. Animals in the IV group (11 animals, 1 per time point) received a single bolus injection at a nominal dose level of 2 mg/kg of the test article. Animals receiving oral doses were administered the test article as a single OG dose (10 animals per dose level, 1 per time point) at nominal dose levels of 25 and 50 mg/kg. IV doses were administered as a solution in 5% (w/v) dextrose in sterile water for injection. OG doses at 25 and 50 mg/kg were administered as suspensions in 5% (w/v) dextrose in sterile water for injection and as in situ sodium salts in 5% (m/v) dextrose: 2% (v/v) ethanol in DWI, respectively. All dose solutions were delivered at 4 mL/kg. Animals receiving the IV dose at 2 mg/kg or the OG dose at 25 mg/kg were not fasted. Animals receiving the OG dose at 50 mg/kg were fasted for 4 hours before dosing and for 1 hour after dosing. Blood and brain tissue were collected from 1 animal/timepoint/group at 0.17, 0.5, 1, 2, 3, 4, 6, 8, 12, 18 and 24 hr after IV dosing, and at 0.5, 1, 2, 3, 4, 6, 8, 12, 18 and 24 hr after OG dosing. Whole blood samples were processed completely to plasma following collection. Plasma and brain tissue were submitted to bioanalysis to determine pharmacokinetic parameters and test article CNS disposition. Plasma and brain tissue from non-dosed animals were collected to serve as surrogate pre-dose samples. Bioanalysis for test article in plasma and brain tissue was performed by HPLC with tandem mass spectrometry (LC-MSMS). Plasma samples were treated with 4 volumes of 0.5% formic acid in methanol to precipitate plasma proteins. Treated samples were centrifuged and supernatants removed for analysis. Brain tissues were massed and homogenized mechanically in the presence of 1 volume of phosphate-buffered saline (PBS). The resulting tissue homogenates were then diluted with a further volume of PBS, and then treated in the same manner as plasma. Extracted samples were assayed for test article by means of LC-MSMS employing reversed-phase chromatography coupled to a triple quadrupole mass spectrometer employing electrospray ionization in the positive ion mode. The analytical column was a Phenomenex Luna 3μ C8 50×2 mm, with an online sample purification step performed on a Phenomenex Synergi 4μ Polar RP 50×2 mm column. Test articles were eluted using a binary mobile phase gradient comprising 5 mM Ammonium Acetate: 0.1% formic acid in either MeOH or H2O. Non-compartmental analysis of plasma test article concentration versus time was performed in Microsoft Excel to generate pharmacokinetic parameters including: area under the curve (AUC), clearance (as Cl or Cl/F), volume of distribution (Vdss), half-life (t½), and bioavailability (F).

[1] = oral delivery to mice, 25 and 50 mg/kg

SMILES: O=C(Nc1ccc2c(c1)B(O)OCC2)c1ccc(F)cc1C(F)(F)F [M1, 4-Fluoro-N-(1-hydroxy-3,4-dihydro-1H-benzo[c][1,2]oxaborinin-7-yl)-2-trifluoromethyl-benzamide]
- period brain concentrations are maintained above the MIC (OG dosing at 25 mg/kg): approximately 5 hours
- period brain concentrations are maintained above the MIC (OG dosing at 50 mg/kg): ~10 h
- AUC(0-t) (brain, IV 2 mg/kg, last = 12 hours): 0.7 µg·h/mL
- clearance (brain, IV 2 mg/kg): 2.54 L/h/kg
- AUC(0-inf) (brain, IV 2 mg/kg): 0.89 µg·h/mL
- Vd (brain, IV 2 mg/kg): 17.1 L/kg
- AUC(0-t) (brain, oral 25 mg/kg, last = 12 hours): 14.3 µg·h/mL
- AUC(0-inf) (brain, oral 25 mg/kg): 14.4 µg·h/mL
- CL/F (brain, oral 25 mg/kg): 1.75 L/h/kg
- AUC(0-t) (brain, oral 50 mg/kg, last = 12 hours): 22.9 µg·h/mL
- AUC(0-inf) (brain, oral 50 mg/kg): 24.7 µg·h/mL
- CL/F (brain, oral 50 mg/kg): 2.19 L/h/kg
- AUC(0-t) (plasma, IV 2 mg/kg, last = 24 hours): 1.58 µg·h/mL
- clearance (plasma, IV 2 mg/kg): 1.67 L/h/kg
- AUC(0-inf) (plasma, IV 2 mg/kg): 1.61 µg·h/mL
- Vd (plasma, IV 2 mg/kg): 5 L/kg
- half-life (plasma, IV 2 mg/kg): 6.88 h
- AUC(0-t) (plasma, oral 25 mg/kg, last = 24 hours): 6.39 µg·h/mL
- AUC(0-inf) (plasma, oral 25 mg/kg): 6.46 µg·h/mL
- CL/F (plasma, oral 25 mg/kg): 3.87 L/h/kg
- half-life (plasma, oral 25 mg/kg): 5.29 h
- AUC(0-t) (plasma, oral 50 mg/kg, last = 24 hours): 81.4 µg·h/mL
- AUC(0-inf) (plasma, oral 50 mg/kg): 83.4 µg·h/mL
- CL/F (plasma, oral 50 mg/kg): 0.614 L/h/kg
- Cmax (brain, oral 25 mg/kg): 5.84 µg/mL
- Cmax (brain, oral 50 mg/kg): 4.21 µg/mL
- Cmax (plasma, oral 25 mg/kg): 2.23 µg/mL
- Cmax (plasma, oral 50 mg/kg): 13.4 µg/mL
- dose proportionality of brain exposure [1]: approximately proportional
- dose proportionality of plasma exposure [1]: superproportional increase
- period for which brain:plasma ratio is greater than unity (oral dose of 25 mg/kg): approximately 4 hours
- brain:plasma ratio (oral dose of 25 mg/kg, for approximately 4 hours following dosing): greater than unity
- F (% of IV) (plasma, oral 25 mg/kg): 43.2 % of IV
